Experimental findings from article PMC5580309, “Molecular-scale features that govern the effects of O-glycosylation on a carbohydrate-binding module” (Chemical Science, 2015) are described below.

As a reminder, the half-life is how long it takes for the measured level to halve. Lower therefore signals rapid decline.

For the series, the target named is T1, thermolysin (Bacillus thermoproteolyticus, UniProt P00800).
T1 sequence (P00800 233-548): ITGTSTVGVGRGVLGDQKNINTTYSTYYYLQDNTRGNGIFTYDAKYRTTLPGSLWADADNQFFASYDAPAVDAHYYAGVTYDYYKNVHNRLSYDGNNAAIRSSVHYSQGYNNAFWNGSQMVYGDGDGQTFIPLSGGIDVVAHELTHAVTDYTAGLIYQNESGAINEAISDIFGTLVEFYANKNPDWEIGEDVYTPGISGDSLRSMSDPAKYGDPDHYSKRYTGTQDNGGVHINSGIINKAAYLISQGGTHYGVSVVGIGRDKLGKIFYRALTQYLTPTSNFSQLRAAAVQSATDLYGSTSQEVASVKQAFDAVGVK
Briefly: Proteolytic stability: half-life to thermolysin degradation. The class given is in vitro ADME. As to conditions: thermolysin (isolated protease); thermolysin degradation; mean of three trials ± SD; procedures as described previously (ESI ref 18). The procedure: All error bars reported are standard deviations of data achieved from three separate trials.
cellulose that were determined in accordance with our procedures as described previously 18.
The results are presented as mean of three trials ± SD. *Denotes an averaged value of four trials

Bridge positions count the residues as written; N and C are the ends. Peptide text beside a SMILES is read from it. * marks the point of attachment. X2 = OC[C@H]1O[C@H](O[C@H]2[C@@H](O)[C@H](O)[C@@H](CO)O[C@@H]2*)[C@@H](O)[C@@H](O)[C@@H]1O

Compound `CC[C@H](C)[C@@H]1NC(=O)CNC(=O)CNC(=O)[C@@H](NC(=O)[C@H](CCC(N)=O)NC(=O)CNC(=O)[C@H](Cc2ccc(O)cc2)NC(=O)[C@H](Cc2c[nH]cn2)NC(=O)[C@H](CS[C@H]2O[C@H](CO)[C@@H](O)[C@H](O)[C@@H]2O[C@H]2O[C@H](CO)[C@@H](O)[C@H](O)[C@@H]2O)NC(=O)[C@H](CCC(N)=O)NC(=O)[C@@H](N)[C@@H](C)O)CSSC[C@@H]2NC(=O)[C@H]([C@@H](C)O)NC(=O)[C@H]([C@@H](C)O)NC(=O)CNC(=O)[C@H](CO)NC(=O)[C@H](C)NC(=O)[C@H](CSSC[C@@H](C(=O)N[C@@H](CC(C)C)C(=O)O)NC(=O)[C@H](CCC(N)=O)NC(=O)[C@H](CO)NC(=O)[C@H](Cc3ccc(O)cc3)NC(=O)[C@H](Cc3ccc(O)cc3)NC(=O)[C@@H]3CCCN3C(=O)[C@H](CC(N)=O)NC(=O)[C@H](CC(C)C)NC(=O)[C@H](C(C)C)NC(=O)[C@H](CCC(N)=O)NC2=O)NC(=O)[C@H](C(C)C)NC(=O)[C@H]([C@@H](C)O)NC(=O)[C@@H]2CCCN2C(=O)CNC(=O)[C@H](CO)NC(=O)[C@H](Cc2ccc(O)cc2)NC(=O)CNC1=O` [CBM variant 34] (H-TQC(X2)HYGQCGGIGYSGPTVCASGTTCQVLNPYYSQCL-OH; disulfide 8-25, 19-35) showed a half-life of 10.8 ± 1.2 min.
